Values quoted from earlier work in article PMC4163017 (ChemMedChem, 2014).
Where “and” joins values, the source holds several entries; their conditions need not be identical. Equal values may be shown once. Read-outs that look alike come from different tables or passages of the source.

Key:
IRES SLIIb RNA = conditions: read-out: KD (dissociation constant); free peptide GGHYrFK-amide; ref [4]
[1] = system: 5'-fluorescein-labeled IRES SLIIb RNA; conditions: ref [4]
[2] = system: HCV RNA replicon in ET (luc-ubi-neo/ET) Huh7 cells; conditions: HCV cellular replicon assay; ref [4]
[3] = system: ET (luc-ubi-neo/ET) Huh7 human hepatoma cells; conditions: 72 h, CytoTox-1, previously reported, ref [4]
[4] = fixed catalyst concentration with varying [RNA]

Substance	Kd (IRES SLIIb RNA) [nM]	Km [1, 4] [µM]	kcat [1, 4]	kcat/KM [1, 4] [M⁻¹ s⁻¹]	Turnover Number [1]	activity in combination with recombinant interferon alpha-2b [2]	Cytotoxicity TC50 [3]	Cytotoxicity TC50 ([3]; listed as [GGHYrFK-amide]-Cu^2+, 1-Cu) [nM]
Cu-GGHYrFK-amide [1-Cu]	44 ± 2	0.85 ± 0.09	0.00883 s⁻¹ and 0.00883 ± 0.00033 s⁻¹	10300	32	additive to slightly synergic activity	greater than 100 µM	> 100000
GGHYrFK-amide	44							
